In article PMC8959960, “Inhibition of Aldose Reductase by Novel Phytocompounds: A Heuristic Approach to Treating Diabetic Retinopathy” (Evidence-based Complementary and Alternative Medicine : eCAM, 2022):

What was measured:
human lens ALR2 = target: T1, human lens ALR2 (Homo sapiens, UniProt P15121); test: ALR2 inhibition in human lens samples (NADPH decrease at 340 nm); format: biochemical; conditions: crude ALR2 from diabetic human lens, DL-glyceraldehyde substrate, 37°C, pH 7.0; means ± SD, n = 3
T1 construct: Crude ALR2 enzyme extract was prepared by homogenizing from 100 mg of diabetic and nondiabetic human lenses; from tissue; host or cells: human lens (Rotary Aravind International Eye Bank)
Experimental: Hayman and Kinoshita method of crude ALR2 enzyme preparation was followed. Five diabetic and nondiabetic human lenses, aged 58 to 65 years, were obtained from the Rotary Aravind International Eye Bank, Aravind Eye Hospital, Madurai. […] The nondiabetic human lens was used as the control. The lens homogenate was centrifuged at 10,000 rpm for 30 minutes, and the resulting crude ALR2 enzyme preparation was used for analysis.
The 300 μl reaction mixture consisted of 100 mM sodium phosphate buffer adjusted to pH 7.0, 0.2 mM Li2SO4, 5 mM 2-mercaptoethanol, 0.15 mM NADPH, and 100 μg crude enzyme preparation, and the substrate DL-glyceraldehyde was added to initiate the reaction. ALR2 activity was assayed spectrophotometrically by measuring the decrease in the absorption of NADPH at 340 nm per unit time at 37°C and pH 7.0.
The percentage inhibition of ALR2 was calculated using the following formula:(3) % inhibition=ΔAbsorbance of sample/min−ΔAbsorbance blank/min/ΔAbsorbance of control/min−ΔAbsorbance blank/min×100.

ALR2 in ARPE-19 cells = target: T2, ALR2 in ARPE-19 cells (Homo sapiens, UniProt P15121); test: Inhibition of ALR2 in ARPE-19 cells; format: cell-based; conditions: normoglycemic (5 mM glucose) ARPE-19 cells, 24 hr, each compound at its human lens IC50 concentration
T2 construct: The cell lysate was collected for analysis; endogenous in cells; host or cells: ARPE-19
Experimental: The cells were shifted to DMEM-low glucose with 10% FBS, 12 hr before the experiment. The cells were washed with PBS and incubated in FBS-free medium and 5 mM/25 mM (normoglycemic condition/hyperglycemic condition) glucose, for 24 hr, with or without the drug. Following the drug treatment, the cells were washed with ice cold PBS, trypsinized, and counted. Cells were resuspended in ALR assay buffer, homogenized for 30 seconds, and centrifuged at 10000 rpm for 30 minutes. The cell lysate was collected for analysis.
ALR2 inhibition protocol by Hayman and Kinoshita was followed.

ARPE-19 cells = test: MTT cell toxicity assay; format: cell-based, human; conditions: 24 hr treatment
Experimental: The cell toxicity of the shortlisted ARIs was assessed using MTT assay kit (in vitro toxicological assay kit, Sigma, USA). ARPE-19 cells were grown to confluence in DMEM/F12 medium with 10% FBS, harvested by trypsinization, and plated at 1 × 10^4 cells per well in a 96-well plate. The medium was replaced with serum-free medium without FBS for 3 hr before the drug treatment. Following serum starvation, ARPE-19 cells were treated with different concentrations of the identified compounds. […] The cells were treated with the lead compounds for 24 hr to determine the cytotoxicity of the compounds. After incubation, the cells were treated with 20 μl of 5 mg/ml MTT and incubated for 3 hr at 37°C to determine the cell toxicity. The viable cells converted MTT into formazan crystals which were dissolved using solubilization solution (200 μl) and measured spectrophotometrically at 570 nm with subtraction of the reference wavelength, 650 nm, to eliminate the possibility of variations in the plate and the media present, using SpectraMax M3 multiplate reader (Molecular Devices, California, USA).

ALR2 = conditions: high glucose condition; cited from earlier work

| SMILES | IC50 (human lens ALR2) | ALR2 inhibition (%) (ALR2 in ARPE-19 cells) | concentration below which no toxicity was shown (ARPE-19 cells) | ALR2 inhibition (ALR2) |
| --- | --- | --- | --- | --- |
| COc1cc(O)c2c(=O)cc(-c3ccccc3)oc2c1OC [7-O-Methylwogonin] | 108 nM | 98% | – | – |
| O=C(OCC1=C[C@@H](O)[C@@H]2C=CO[C@@H](O[C@@H]3O[C@H](CO)[C@@H](O)[C@H](O)[C@H]3O)[C@H]12)c1ccc(O)cc1 [Agnuside] | 22.4 nM | 100% | below 5 μM | – |
| CC(/C=C1\SC(=S)N(CC(=O)O)C1=O)=C\c1ccccc1 [Epalrestat, reference compound] | – | 85% | below 5 μM | 65% |
| COc1cc2oc(-c3ccc(O)cc3)c(O[C@@H]3O[C@H](CO)[C@H](O)[C@H](O)[C@H]3O)c(=O)c2c(O)c1OC [Eupalitin-3-O-galactoside] | 27.3 nM | 65% | – | – |
| COc1cc(C(=O)O[C@H]2[C@@H]3C=CO[C@@H](O[C@@H]4O[C@H](CO)[C@@H](O)[C@H](O)[C@H]4O)[C@@H]3[C@@]3(CO)O[C@@H]23)ccc1O [Picroside II] | 130 nM | 71% | – | – |
